# According to patent publication EP0177710A1, “Phenyl urea derivatives” (BAYER AG, priority 1984, dated 1986):
# Test system: Unkräutern in Mais
# Assay: Post-emergence test / greenhouse
# Assay type: in vivo
# Settings: post-emergence spray, control of weeds in maize, rated after three weeks; compared with comparison substance (A)
# From the text: Post-emergence-Test/Gewächshaus
# Lösungsmittel: 5 Gewichtsteile Aceton
# Emulgator: 1 Gewichtsteil Alkylarylpolyglykolether
# Zur Herstellung einer zweckmäßigen Wirkstoffzubereitung vermischt man 1 Gewichtsteil Wirkstoff mit der angegebenen Menge Lösungsmittel, gibt die angegebene Menge Emulgator zu und verdünnt das Konzentrat mit Wasser auf die gewünschte Konzentration.
# Mit der Wirkstoffzubereitung spritzt man Testpflanzen, welche eine Höhe von 5 - 15 cm haben so, daß die jeweils gewünschten Wirkstoffmengen pro Flächeneinheit ausgebracht werden. Die Konzentration der Spritzbrühe wird so gewählt, daß in 2000 1 Wasser/ha die jeweils gewünschten Wirkstoffmengen ausgebracht werden. Nach drei Wochen wird der Schädigungsgrad der Pflanzen bonitiert in % Schädigung im Vergleich zur Entwicklung der unbehandelten Kontrolle.
# Es bedeuten: • O % = keine Wirkung (wie unbehandelte Kontrolle) 100 % = totale Vernichtung
smiles,measurement,value
CC(C)n1cc(Oc2ccc(NC(=O)N(C)C)cc2)cn1 [I-1],selektive herbizide Wirksamkeit,bessere selektive herbizide Wirksamkeit
